Assays:
Format in all cases: functional
A549 = assay: Cytotoxicity against Homo sapiens (human) A549 cells after 48 hr by sulforhodamine B assay; details: A549, 48 h
OVCAR-8 = assay: Cytotoxicity against Homo sapiens (human) OVCAR8 cells after 48 hr by sulforhodamine B assay; details: OVCAR-8, 48 h
CAKI-1 = assay: Cytotoxicity against Homo sapiens (human) Caki1 cells after 48 hr by sulforhodamine B assay; details: CAKI-1, 48 h; for CC50: read-out: LC50 (the source's name)
786-0 = assay: Cytotoxicity against Homo sapiens (human) 786-0 cells after 48 hr by sulforhodamine B assay; details: 786-0, 48 h
[1] = Cytotoxicity against Homo sapiens (human) NCI-ADR-RES cells after 48 hr by sulforhodamine B assay
UO-31 = assay: Cytotoxicity against Homo sapiens (human) UO31 cells after 48 hr by sulforhodamine B assay; details: UO-31, 48 h
SNB-19 = assay: Cytotoxicity against Homo sapiens (human) SNB19 cells after 48 hr by sulforhodamine B assay; details: SNB-19, 48 h
NCI-H226 = assay: Cytotoxicity against Homo sapiens (human) NCI-H226 cells after 48 hr by sulforhodamine B assay; details: NCI-H226, 48 h; for CC50: read-out: LC50 (the source's name)
A498 = assay: Cytotoxicity against Homo sapiens (human) A498 cells after 48 hr by sulforhodamine B assay; details: A498, 48 h
SF-539 = assay: Cytotoxicity against Homo sapiens (human) SF539 cells after 48 hr by sulforhodamine B assay; details: SF-539, 48 h
BT-549 = assay: Cytotoxicity against Homo sapiens (human) BT549 cells after 48 hr by sulforhodamine B assay; details: BT-549, 48 h
U-251 = assay: Cytotoxicity against Homo sapiens (human) U251 cells after 48 hr by sulforhodamine B assay; details: U-251, 48 h
UACC-62 = assay: Cytotoxicity against Homo sapiens (human) UACC62 cells after 48 hr by sulforhodamine B assay; details: UACC-62, 48 h
M14 = assay: Cytotoxicity against Homo sapiens (human) M14 cells after 48 hr by sulforhodamine B assay; details: M14, 48 h
HOP-92 = assay: Cytotoxicity against Homo sapiens (human) HOP92 cells after 48 hr by sulforhodamine B assay; details: HOP-92, 48 h
NCI-H460 = assay: Cytotoxicity against Homo sapiens (human) NCI-H460 cells assessed as cell growth at 10^-4 M after 48 hr by Alamar blue assay; details: NCI-H460, 48 h, read-out: Activity
MCF7 = assay: Cytotoxicity against Homo sapiens (human) MCF7 cells assessed as cell growth at 10^-4 M after 48 hr by Alamar blue assay; details: MCF7, 48 h, read-out: Activity
UACC-257 = assay: Cytotoxicity against Homo sapiens (human) UACC257 cells after 48 hr by sulforhodamine B assay; details: UACC-257, 48 h
SN12C = assay: Cytotoxicity against Homo sapiens (human) SN12C cells after 48 hr by sulforhodamine B assay
SF-268 = assay: Cytotoxicity against Homo sapiens (human) SF268 cells after 48 hr by sulforhodamine B assay; details: SF-268, 48 h
K562 = assay: Cytotoxicity against Homo sapiens (human) K562 cells after 48 hr by sulforhodamine B assay; details: K562, 48 h; for CC50: read-out: LC50 (the source's name)
NCI-H522 = assay: Cytotoxicity against Homo sapiens (human) NCI-H522 cells after 48 hr by sulforhodamine B assay; details: NCI-H522, 48 h; for CC50: read-out: LC50 (the source's name)
NCI-H23 = assay: Cytotoxicity against Homo sapiens (human) NCI-H23 cells after 48 hr by sulforhodamine B assay; details: NCI-H23, 48 h; for CC50: read-out: LC50 (the source's name)
LOX IMVI = assay: Cytotoxicity against Homo sapiens (human) LOXIMVI cells after 48 hr by sulforhodamine B assay
SK-MEL-28 = assay: Cytotoxicity against Homo sapiens (human) SK-MEL-28 cells after 48 hr by sulforhodamine B assay; details: SK-MEL-28, 48 h
ACHN = assay: Cytotoxicity against Homo sapiens (human) ACHN cells after 48 hr by sulforhodamine B assay
HCT-15 = assay: Cytotoxicity against Homo sapiens (human) HCT15 cells after 48 hr by sulforhodamine B assay; details: HCT-15, 48 h
CCRF-CEM = assay: Cytotoxicity against Homo sapiens (human) CCRF-CEM cells after 48 hr by sulforhodamine B assay
[2] = read-out: LC50 (the source's name)

With `ClCc1ccc(Cn2cnc3ncnc(Cl)c32)cc1` the GI50 (A549) was 1.81 µM, the TGI (A549) was 4.16 µM and the CC50 (A549; [2]) was 9.33 µM. It also gave a GI50 (OVCAR-8) of 3.16 µM, an LC50 (concentration killing 50% of cells) (OVCAR-8) of 56.2 µM and a TGI (OVCAR-8) of 11 µM. It also gave a GI50 (CAKI-1) of 1.99 µM, a TGI (CAKI-1) of 4.46 µM and a CC50 (CAKI-1) of 9.77 µM. It also gave a GI50 (786-0) of 1.69 µM, an LC50 (786-0) of 5.49 µM and a TGI (786-0) of 3.01 µM. The GI50 [1] was 1.81 µM, the LC50 (concentration killing 50% of cells) [1] was 15.5 µM and the TGI [1] was 4.67 µM. For the same molecule, the GI50 (UO-31) was 4.78 µM, the LC50 (concentration causing 50% net cell kill) (UO-31) was > 100 µM and the TGI (UO-31) was 66.1 µM. It also gave a GI50 (SNB-19) of 1.69 µM, an LC50 (SNB-19) of 5.75 µM and a TGI (SNB-19) of 3.16 µM. The GI50 (NCI-H226) was 3.01 µM, the TGI (NCI-H226) was 12 µM and the CC50 (NCI-H226) was 37.1 µM. The GI50 (A498) was 1.81 µM, the LC50 (lethal concentration, 50% cell kill) (A498) was 6.3 µM and the TGI (A498) was 3.38 µM. For the same molecule, the GI50 (SF-539) was 2.08 µM, the LC50 (concentration killing 50% of cells) (SF-539) was 6.76 µM and the TGI (SF-539) was 3.71 µM. For the same molecule, the GI50 (BT-549) was 3.71 µM, the LC50 (50% lethal concentration) (BT-549) was 56.2 µM and the TGI (BT-549) was 17 µM. For the same molecule, the GI50 (U-251) was 1.09 µM, the LC50 (concentration killing 50% of cells) (U-251) was 4.78 µM and the TGI (U-251) was 2.29 µM. The GI50 (UACC-62) was 2.51 µM, the LC50 (concentration causing 50% net cell kill) (UACC-62) was 34.7 µM and the TGI (UACC-62) was 12 µM. It also gave a GI50 (M14) of 2.75 µM, an LC50 (M14) of 37.1 µM and a TGI (M14) of 13.2 µM. The GI50 (HOP-92) was 1.17 µM, the TGI (HOP-92) was 2.51 µM and the CC50 (HOP-92; [2]) was 5.49 µM. For the same molecule, the growth at 100 µM (NCI-H460) was 0%, the growth at 100 µM (MCF7) was 23% and the GI50 (UACC-257) was 1.58 µM. It also gave an LC50 (concentration killing 50% of cells) (UACC-257) of 7.76 µM, a TGI (UACC-257) of 3.46 µM and a GI50 (SN12C) of 3.63 µM. It also gave an LC50 (50% lethal concentration) (SN12C) of 40.7 µM, a TGI (SN12C) of 14.8 µM and a GI50 (SF-268) of 1.65 µM. For the same molecule, the TGI (SF-268) was 3.38 µM, the CC50 (SF-268; [2]) was 7.07 µM and the GI50 (K562) was 3.01 µM. For the same molecule, the TGI (K562) was > 100 µM, the CC50 (K562) was > 100 µM and the GI50 (NCI-H522) was 4.26 µM. The TGI (NCI-H522) was > 100 µM, the CC50 (NCI-H522) was > 100 µM and the GI50 (NCI-H23) was 15.8 µM. The TGI (NCI-H23) was 30.9 µM and the CC50 (NCI-H23) was 58.9 µM.

`ClCc1ccccc1Cn1cnc2c(Cl)nc(Cl)nc21` gave a GI50 (A549) of 2.23 µM, a TGI (A549) of 4.67 µM and a GI50 (OVCAR-8) of 1.23 µM. The LC50 (concentration killing 50% of cells) (OVCAR-8) was 6.45 µM, the TGI (OVCAR-8) was 2.81 µM and the GI50 (CAKI-1) was 0.36 µM. The TGI (CAKI-1) was 0.89 µM, the CC50 (CAKI-1) was 3.09 µM and the GI50 (786-0) was 1.86 µM. The LC50 (786-0) was 6.45 µM, the TGI (786-0) was 3.47 µM and the GI50 (LOX IMVI) was 0.15 µM. The LC50 (LOX IMVI) was 0.85 µM, the TGI (LOX IMVI) was 0.36 µM and the GI50 (SK-MEL-28) was 1.23 µM. For the same molecule, the TGI (SK-MEL-28) was 3.31 µM, the GI50 [1] was 1.51 µM and the LC50 (concentration killing 50% of cells) [1] was 6.16 µM. The TGI [1] was 3.02 µM, the GI50 (UO-31) was 0.42 µM and the LC50 (concentration causing 50% net cell kill) (UO-31) was 5.92 µM. It also gave a TGI (UO-31) of 1.51 µM, a GI50 (ACHN) of 0.47 µM and a TGI (ACHN) of 1.62 µM. The CC50 (ACHN; [2]) was 4.16 µM, the GI50 (NCI-H226) was 1.73 µM and the TGI (NCI-H226) was 3.38 µM. It also gave a CC50 (NCI-H226) of 6.76 µM, a GI50 (HCT-15) of 0.33 µM and a TGI (HCT-15) of 1.2 µM. The CC50 (HCT-15; [2]) was 4.78 µM, the GI50 (A498) was 2.4 µM and the LC50 (lethal concentration, 50% cell kill) (A498) was 9.55 µM. The TGI (A498) was 4.78 µM, the GI50 (SF-539) was 1.47 µM and the LC50 (concentration killing 50% of cells) (SF-539) was 5.62 µM. The TGI (SF-539) was 2.88 µM, the GI50 (BT-549) was 0.45 µM and the LC50 (50% lethal concentration) (BT-549) was 4.16 µM. It also gave a TGI (BT-549) of 1.47 µM, a GI50 (U-251) of 0.31 µM and an LC50 (concentration killing 50% of cells) (U-251) of 4.57 µM. For the same molecule, the TGI (U-251) was 1.02 µM, the GI50 (UACC-62) was 1.31 µM and the LC50 (concentration causing 50% net cell kill) (UACC-62) was 5.24 µM. It also gave a TGI (UACC-62) of 2.63 µM, a GI50 (CCRF-CEM) of 0.03 µM and a TGI (CCRF-CEM) of 0.09 µM. It also gave a CC50 (CCRF-CEM; [2]) of 0.47 µM, a GI50 (M14) of 1.38 µM and an LC50 (M14) of 5.75 µM. It also gave a TGI (M14) of 2.81 µM, a GI50 (HOP-92) of 0.35 µM and a TGI (HOP-92) of 0.97 µM. The growth at 100 µM (NCI-H460) was 0%, the growth at 100 µM (MCF7) was 0% and the GI50 (UACC-257) was 1.82 µM. The LC50 (concentration killing 50% of cells) (UACC-257) was 8.51 µM, the TGI (UACC-257) was 3.89 µM and the GI50 (SN12C) was 0.72 µM. The LC50 (50% lethal concentration) (SN12C) was 4.67 µM, the TGI (SN12C) was 2.04 µM and the GI50 (SF-268) was 1.77 µM. It also gave a TGI (SF-268) of 4.16 µM, a GI50 (K562) of 0.15 µM and a TGI (K562) of 0.37 µM. It also gave a CC50 (K562) of 0.91 µM, a GI50 (NCI-H522) of 0.58 µM and a TGI (NCI-H522) of 1.99 µM. It also gave a CC50 (NCI-H522) of 6.76 µM, a GI50 (NCI-H23) of 1.51 µM and a TGI (NCI-H23) of 3.09 µM. It also gave a CC50 (NCI-H23) of 6.31 µM.
